Data: PubChem BioAssay (NCI)
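Five compound concentrations were applied to cells in 96-well plates for 48 hours; endpoints were derived by simple linear interpolation of the resulting dose-response curve. At the GI50, growth is halved. TGI is the concentration that stops growth completely.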

Assays:
Assay in all cases: NCI anticancer screen, dose series, 48 h
[1] = test system: SK-MEL-2 melanoma
[2] = test system: MOLT-4 leukemia
[3] = test system: OVCAR-5 ovarian
[4] = test system: NCI/ADR-RES ovarian
[5] = test system: SK-OV-3 ovarian
[6] = test system: HCT-15 colon
[7] = test system: IGROV1 ovarian
[8] = test system: SN12C renal
[9] = test system: MCF7 breast
[10] = test system: HOP-92 NSCLC
[11] = test system: COLO 205 colon
[12] = test system: A549 NSCLC
[13] = test system: HOP-62 NSCLC
[14] = test system: SK-MEL-5 melanoma
[15] = test system: UO-31 renal
[16] = test system: U251 CNS
[17] = test system: HCC-2998 colon
[18] = test system: MALME-3M melanoma
[19] = test system: A498 renal
[20] = test system: 786-0 renal
[21] = test system: SR leukemia
[22] = test system: TK-10 renal
[23] = test system: CCRF-CEM leukemia
[24] = test system: EKVX NSCLC
[25] = test system: RPMI-8226 leukemia
[26] = test system: K-562 leukemia
[27] = test system: SF-268 CNS
[28] = test system: NCI-H23 lung
[29] = test system: OVCAR-4 ovarian
[30] = test system: NCI-H522 lung
[31] = test system: RXF 393 renal
[32] = test system: OVCAR-3 ovarian
[33] = test system: SF-539 CNS
[34] = test system: MDA-MB-231 breast
[35] = test system: MDA-MB-435
[36] = test system: M14 melanoma
[37] = test system: HS 578T breast
[38] = test system: ACHN renal
[39] = test system: HCT-116 colon
[40] = test system: UACC-257 melanoma
[41] = test system: PC-3 prostate
[42] = test system: CAKI-1 renal
[43] = test system: SW-620 colon
[44] = test system: UACC-62 melanoma
[45] = test system: BT-549 breast
[46] = test system: SK-MEL-28 melanoma
[47] = test system: SNB-75 CNS
[48] = test system: SNB-19 CNS
[49] = test system: OVCAR-8 ovarian
[50] = test system: NCI-H226 lung
[51] = test system: DU-145 prostate
[52] = test system: HL-60(TB) leukemia
[53] = test system: LOX IMVI melanoma
[54] = test system: KM12 colon
[55] = test system: HT29 colon
[56] = test system: T-47D breast
[57] = test system: MDA-MB-468 breast
[58] = test system: SF-295 CNS
[59] = test system: NCI-H460 lung

`CCN1CCN(c2ccc(NC(=O)Nc3ccc(-c4cc(C(=O)NC)c5ncccc5n4)cc3)cc2C(F)(F)F)CC1` gave a GI50 [1] of 9.87 µM, a TGI [1] of over 18 µM and a GI50 [2] of 0.689 µM. The TGI [2] was over 18 µM, the GI50 [3] was 2.82 µM and the TGI [3] was 5.23 µM. For the same molecule, the GI50 [4] was 1.78 µM, the TGI [4] was 8.09 µM and the GI50 [5] was 3.48 µM. The TGI [5] was 7.5 µM, the GI50 [6] was 0.333 µM and the TGI [6] was 0.697 µM. For the same molecule, the GI50 [7] was 3.01 µM, the TGI [7] was 5.61 µM and the GI50 [8] was 2.77 µM. It also gave a TGI [8] of 5.3 µM, a GI50 [9] of 0.293 µM and a TGI [9] of 0.608 µM. For the same molecule, the GI50 [10] was 2.45 µM, the TGI [10] was 5.67 µM and the GI50 [11] was 4.15 µM. The TGI [11] was 14.2 µM, the GI50 [12] was 0.466 µM and the TGI [12] was 1.3 µM. The GI50 [13] was 2.79 µM, the TGI [13] was 5.41 µM and the GI50 [14] was 2.05 µM. It also gave a TGI [14] of 4.26 µM, a GI50 [15] of 2.71 µM and a TGI [15] of 5.14 µM. For the same molecule, the GI50 [16] was 2.7 µM, the TGI [16] was 5.53 µM and the GI50 [17] was 2.83 µM. For the same molecule, the TGI [17] was 5.31 µM, the GI50 [18] was 0.286 µM and the TGI [18] was 0.532 µM. The GI50 [19] was 2.74 µM, the TGI [19] was 5.31 µM and the GI50 [20] was 0.295 µM. The TGI [20] was 0.583 µM, the GI50 [21] was 0.67 µM and the TGI [21] was over 18 µM. The GI50 [22] was 3.86 µM, the TGI [22] was 6.63 µM and the GI50 [23] was 0.461 µM. For the same molecule, the TGI [23] was 1.27 µM, the GI50 [24] was 2.94 µM and the TGI [24] was 5.63 µM. For the same molecule, the GI50 [25] was 3.05 µM, the TGI [25] was over 18 µM and the GI50 [26] was 0.657 µM. It also gave a TGI [26] of over 18 µM, a GI50 [27] of 3.09 µM and a TGI [27] of 7 µM. The GI50 [28] was 2.68 µM, the TGI [28] was 5.68 µM and the GI50 [29] was 2.63 µM. The TGI [29] was 5.64 µM, the GI50 [30] was 3.23 µM and the TGI [30] was 6.4 µM. It also gave a GI50 [31] of 0.494 µM, a TGI [31] of 1.66 µM and a GI50 [32] of 2.55 µM. It also gave a TGI [32] of 5.06 µM, a GI50 [33] of 2.3 µM and a TGI [33] of 4.57 µM. For the same molecule, the GI50 [34] was 2.78 µM, the TGI [34] was 5.25 µM and the GI50 [35] was 0.269 µM. For the same molecule, the TGI [35] was 0.564 µM, the GI50 [36] was 0.4 µM and the TGI [36] was 1.05 µM. The GI50 [37] was 2.39 µM, the TGI [37] was 6.88 µM and the GI50 [38] was 2.39 µM. It also gave a TGI [38] of 4.73 µM, a GI50 [39] of 1.12 µM and a TGI [39] of 4.83 µM. For the same molecule, the GI50 [40] was 3.05 µM, the TGI [40] was 6 µM and the GI50 [41] was 2.88 µM. For the same molecule, the TGI [41] was 6.03 µM, the GI50 [42] was 3.01 µM and the TGI [42] was 5.6 µM. For the same molecule, the GI50 [43] was 0.314 µM, the TGI [43] was 0.621 µM and the GI50 [44] was 3.06 µM. For the same molecule, the TGI [44] was 5.66 µM, the GI50 [45] was 2.78 µM and the TGI [45] was 5.67 µM. It also gave a GI50 [46] of 0.322 µM, a TGI [46] of 0.582 µM and a GI50 [47] of 0.842 µM. For the same molecule, the TGI [47] was 3.82 µM, the GI50 [48] was 2.97 µM and the TGI [48] was 5.48 µM. For the same molecule, the GI50 [49] was 3.85 µM, the TGI [49] was 10.5 µM and the GI50 [50] was 2.7 µM. For the same molecule, the TGI [50] was 6.36 µM, the GI50 [51] was 2.23 µM and the TGI [51] was 4.9 µM. For the same molecule, the GI50 [52] was 3.42 µM, the TGI [52] was over 18 µM and the GI50 [53] was 0.674 µM. For the same molecule, the TGI [53] was 2.66 µM, the GI50 [54] was 3.25 µM and the TGI [54] was 6.65 µM. For the same molecule, the GI50 [55] was 0.525 µM, the TGI [55] was 2.11 µM and the GI50 [56] was 3.72 µM. For the same molecule, the TGI [56] was over 18 µM, the GI50 [57] was 2.48 µM and the TGI [57] was 5.03 µM. For the same molecule, the GI50 [58] was 2.05 µM, the TGI [58] was 4.47 µM and the GI50 [59] was 0.664 µM. It also gave a TGI [59] of 2.92 µM.
